Our source for the IC50 values is patent US8211929B2, “Pyrimidine derivatives as kinase modulators and method of use” (Exelixis, Inc., priority 2004, dated 2012).

Read-outs that look alike come from different tables or passages of the source.

Usually IC50 stands for the midpoint of a concentration-inhibition curve. Low values mean higher potency, high ones lower potency.

In one test the target is T1, IGF 3P (Homo sapiens, UniProt P08069).
T1 construct: human IGF1R kinase domain residues M954-C1367; made in house; host or cells: baculovirus expression (insect cells)
T1 sequence (P08069 954-1367): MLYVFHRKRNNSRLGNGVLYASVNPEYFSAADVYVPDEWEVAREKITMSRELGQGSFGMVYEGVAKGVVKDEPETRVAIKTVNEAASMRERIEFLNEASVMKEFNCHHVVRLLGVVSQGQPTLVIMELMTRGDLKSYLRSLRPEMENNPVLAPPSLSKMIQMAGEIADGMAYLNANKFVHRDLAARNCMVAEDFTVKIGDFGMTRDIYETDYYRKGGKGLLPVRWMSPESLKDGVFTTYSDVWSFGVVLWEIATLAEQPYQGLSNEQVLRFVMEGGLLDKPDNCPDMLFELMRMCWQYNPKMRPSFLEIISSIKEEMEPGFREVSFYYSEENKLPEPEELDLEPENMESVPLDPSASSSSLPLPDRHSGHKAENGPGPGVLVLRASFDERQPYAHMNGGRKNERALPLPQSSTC
Kind of test: IGF1R kinase assay (LCCA), IGF 3P. The class given is biochemical. The method, boiled down:
(§1)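 Baculovirus-expressed human IGF1R kinase domain (M954-C1367), 4 nM, with 3 μM ATP and 4 μM poly EY in Tris-HCl pH 7.5 buffer containing MgCl2 and MnCl2, 2 h at ambient temperature. Remaining ATP read by luciferase chemiluminescence; IC50 from 10-point dose-response fitted to a four-parameter equation.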

For test [1], the target named is T2, (Homo sapiens, UniProt P08069).
T2 construct: human IGF1R kinase domain residues M954-C1367; made in house; host or cells: baculovirus expression (insect cells)
T2 sequence (P08069 954-1367): as above
Kind of test: IGF1R kinase assay (LCCA), IGF 0P. Format: biochemical. The method, boiled down: as §1

As to `Cc1cc(Nc2cc(C3CC3)[nH]n2)nc(NCc2cc(-c3ccc(F)cc3F)no2)n1` [Example 622, N^4-(5-cyclopropyl-1H-pyrazol-3-yl)-N^2-{[3-(2,4-difluorophenyl)isoxazol-5-yl]methyl}-6-methylpyrimidine-2,4-diamine], the IC50 was under 50 nM on IGF 3P and 50 to 500 nM in test [1].
Consider `CCN(CC)CCCNc1nc(Nc2cc(C3CC3)n[nH]2)c(Cl)c(Nc2ccccc2Cl)n1` [Example 160], for which the values for the IC50 (on IGF 3P (IGF1R kinase LCCA assay); in test [1] (IGF1R kinase LCCA assay)) were 500 to 5000 nM and over 5000 nM, respectively.
Taken in the same sequence, the figures for `c1ccc(-c2cc(CNc3nc(Nc4cc(C5CC5)n[nH]4)cc(N4CCCC4)n3)on2)cc1` [Example 12] were 50 to 500 nM and 50 to 500 nM.
For the compound `Cc1cc(Nc2cc(C3CC3)[nH]n2)nc(NCc2cc(-c3ccc(F)c(F)c3)no2)n1` [Example 621, N^4-(5-cyclopropyl-1H-pyrazol-3-yl)-N^2-{[3-(3,4-difluorophenyl)isoxazol-5-yl]methyl}-6-methylpyrimidine-2,4-diamine], the IC50 was under 50 nM at IGF 3P and 50 to 500 nM in test [1].
As for `c1ccc(-c2cc(CNc3nc(Nc4cc(C5CC5)[nH]n4)cc(N4CCNCC4)n3)on2)cc1` [Example 499], the IC50 was under 50 nM against IGF 3P (IGF1R kinase LCCA assay) and 50 to 500 nM in test [1] (IGF1R kinase LCCA assay).
The corresponding values for `CN(C)C(=O)CCc1ccc(Nc2ncc(Br)c(Nc3cc(C4CC4)n[nH]3)n2)cc1` [Example 76] are 50 to 500 nM and 50 to 500 nM.
Taken in the same sequence, the figures for `Brc1cnc(NCc2cnn(-c3ccccc3)n2)nc1Nc1cc(C2CC2)n[nH]1` [Example 266] were over 5000 nM and 500 to 5000 nM.
Regarding `FC(F)(F)Oc1cccc(Nc2ncc(Br)c(Nc3cc(C4CC4)n[nH]3)n2)c1` [Example 264], the IC50 (at IGF 3P (IGF1R kinase LCCA assay); in test [1] (IGF1R kinase LCCA assay)) was over 5000 nM throughout.
On to `CC(=O)Nc1ccc(Cl)c(Nc2nccc(Nc3cc(C4CC4)[nH]n3)n2)c1` [Example 227], for which the IC50 (at IGF 3P (IGF1R kinase LCCA assay); in test [1] (IGF1R kinase LCCA assay)) was 500 to 5000 nM throughout.
In the case of `Cc1cc(Nc2cc(C3CC3)[nH]n2)nc(NCc2cc(-c3ccccn3)no2)n1` [Example 498], the IC50 (against IGF 3P (IGF1R kinase LCCA assay); in test [1] (IGF1R kinase LCCA assay)) was 50 to 500 nM throughout.
With `CC(C)c1cc(CNc2nc(Nc3cc(C4CC4)n[nH]3)cc(OCCN3CCCCC3)n2)on1` [Example 597, N^4-(3-cyclopropyl-1H-pyrazol-5-yl)-N^2-{[3-(1-methylethyl)isoxazol-5-yl]methyl}-6-[(2-piperidin-1-ylethyl)oxy]pyrimidine-2,4-diamine], the results for the 50% inhibitory concentration (IC50) (at IGF 3P; in test [1]) were under 50 nM and 50 to 500 nM, respectively.
With `FC(F)(F)c1cc(Br)cc(Nc2ncc(Br)c(Nc3cc(C4CC4)n[nH]3)n2)c1` [Example 305], the IC50 (against IGF 3P (IGF1R kinase LCCA assay); in test [1] (IGF1R kinase LCCA assay)) was over 5000 nM in each case.
For `CNCCc1ccc(Nc2nc(C)cc(Nc3cc(C4CC4)n[nH]3)n2)cc1` [Example 540], the IC50 (against IGF 3P (IGF1R kinase LCCA assay); in test [1] (IGF1R kinase LCCA assay)) was 500 to 5000 nM each time.
Consider `Cc1cc(Nc2cc(C)on2)nc(NCc2cc(-c3ccccc3)no2)n1` [Example 307], for which the IC50 (against IGF 3P (IGF1R kinase LCCA assay); in test [1] (IGF1R kinase LCCA assay)) was over 5000 nM each time.
Take `CC(=O)Nc1cnc(Nc2ccccc2Cl)nc1Nc1cc(C2CC2)n[nH]1` [Example 280]: the IC50 (against IGF 3P (IGF1R kinase LCCA assay); in test [1] (IGF1R kinase LCCA assay)) was over 5000 nM each time.
Take `CC(C)c1cc(CNc2nc(NCCN3CCN(C)CC3)cc(Nc3cc(C(C)C)[nH]n3)n2)on1` [Example 558]: the IC50 is under 50 nM on IGF 3P (IGF1R kinase LCCA assay) and 50 to 500 nM in test [1] (IGF1R kinase LCCA assay).
Taken in the same sequence, the figures for `NCCCCn1cc(-c2cccc(OCc3ccccc3)c2)c2c(N)ncnc21` [Example 344] were 500 to 5000 nM and over 5000 nM.
Take `CC(=O)N1CCN(c2cc(Nc3cc(C4CC4)[nH]n3)nc(NCc3cc(C(C)C)no3)n2)CC1` [Example 614, 6-(4-acetylpiperazin-1-yl)-N^4-(5-cyclopropyl-1H-pyrazol-3-yl)-N^2-{[3-(1-methylethyl)isoxazol-5-yl]methyl}pyrimidine-2,4-diamine]: the half-inhibitory concentration (IC50) is under 50 nM against IGF 3P and 50 to 500 nM in test [1].
Turning to `CCN(CC)CCCNc1cc(Nc2cc(C(C)C)[nH]n2)nc(NCc2cc(-c3ccccc3)no2)n1` [Example 495], the IC50 against IGF 3P (IGF1R kinase LCCA assay) is under 50 nM; in test [1] (IGF1R kinase LCCA assay), 50 to 500 nM.
As to `Cc1cc(Nc2ccccc2)nc(Nc2ccc(CCC(=O)NCCN3CCCC3)cc2)n1` [Example 309], the IC50 (at IGF 3P (IGF1R kinase LCCA assay); in test [1] (IGF1R kinase LCCA assay)) was over 5000 nM in each case.
In the case of `Cc1ccc(C(C)C)cc1Nc1ncc(Br)c(Nc2cc(C3CC3)n[nH]2)n1` [Example 165], the IC50 (on IGF 3P (IGF1R kinase LCCA assay); in test [1] (IGF1R kinase LCCA assay)) was 500 to 5000 nM throughout.
Consider `Brc1ccc(Nc2ncc(Br)c(Nc3cc(C4CC4)n[nH]3)n2)c(Br)c1` [Example 163], for which the IC50 (on IGF 3P (IGF1R kinase LCCA assay); in test [1] (IGF1R kinase LCCA assay)) was 500 to 5000 nM in each case.
As for `Cc1cc(Nc2cc(C3CC3)n[nH]2)nc(Nc2ccc(CCN3CCOCC3)cc2)n1` [Example 556], the IC50 (against IGF 3P (IGF1R kinase LCCA assay); in test [1] (IGF1R kinase LCCA assay)) was 500 to 5000 nM throughout.
Consider `Cc1cc(Nc2cc(C3CC3)[nH]n2)nc(NCc2cc(-c3ccc(F)cn3)no2)n1` [Example 639, N^4-(5-cyclopropyl-1H-pyrazol-3-yl)-N^2-{[3-(5-fluoropyridin-2-yl)isoxazol-5-yl]methyl}-6-methylpyrimidine-2,4-diamine], for which the IC50 (on IGF 3P; in test [1]) was 500 to 5000 nM in each case.
In the case of `Cc1cc(CNc2nc(Nc3cc(C4CC4)[nH]n3)cc(NC3CC4CCC3C4)n2)on1` (centres unmarked) [Example 634, N^4-bicyclo[2.2.1]hept-2-yl-N^6-(5-cyclopropyl-1H-pyrazol-3-yl)-N^2-[(3-methylisoxazol-5-yl)methyl]pyrimidine-2,4,6-triamine], the IC50 is under 50 nM against IGF 3P and 50 to 500 nM in test [1].
On to `Cc1cc(Nc2cc(C3CC3)n[nH]2)nc(Nc2ccc(C3CCN(C(=O)OC(C)(C)C)CC3)cc2)n1` [Example 566], for which the IC50 (on IGF 3P (IGF1R kinase LCCA assay); in test [1] (IGF1R kinase LCCA assay)) was 500 to 5000 nM in each case.
For `c1cc(Nc2cc(C3CCCC3)n[nH]2)nc(Nc2ccc(N3CCOCC3)cc2)n1` [Example 151], the results for the IC50 (on IGF 3P (IGF1R kinase LCCA assay); in test [1] (IGF1R kinase LCCA assay)) were 50 to 500 nM and 500 to 5000 nM, respectively.
Regarding `Cc1cc(Nc2cc(C3CC3)n[nH]2)nc(Nc2ccc3cc(C(=O)NCCN4CCCC4)ccc3c2)n1` [Example 49], the IC50 is under 50 nM at IGF 3P (IGF1R kinase LCCA assay) and 50 to 500 nM in test [1] (IGF1R kinase LCCA assay).
The corresponding values for `Brc1cnc(NCc2cc(-c3ccccc3)no2)nc1Nc1cc(-c2ccccc2)n[nH]1` [Example 323] are over 5000 nM and over 5000 nM.
For `CN1CCN(C(=O)c2cccc(Nc3ncc(Br)c(Nc4cc(C5CC5)n[nH]4)n3)c2)CC1` [Example 128], the IC50 on IGF 3P (IGF1R kinase LCCA assay) fell in the range of 50 to 500 nM; in test [1] (IGF1R kinase LCCA assay) it was 500 to 5000 nM.
Regarding `CC(C)c1cc(Nc2cc(N3CCOCC3)nc(NCc3cc(-c4ccc(F)cc4)no3)n2)[nH]n1` [Example 607, N^2-{[3-(4-fluorophenyl)isoxazol-5-yl]methyl}-N^4-[3-(1-methylethyl)-1H-pyrazol-5-yl]-6-morpholin-4-ylpyrimidine-2,4-diamine], the values for the IC50 (at IGF 3P; in test [1]) were under 50 nM and 50 to 500 nM, respectively.
Turning to `CCN(CC)CCNc1cc(Nc2cc(C3CC3)[nH]n2)nc(NCc2cc(-c3ccccc3)no2)n1` [Example 45], the IC50 (on IGF 3P (IGF1R kinase LCCA assay); in test [1] (IGF1R kinase LCCA assay)) was under 50 nM throughout.
Turning to `Brc1cnc(NC2CCc3ccccc32)nc1Nc1cc(C2CC2)[nH]n1` (centres unmarked) [Example 25], the IC50 at IGF 3P (IGF1R kinase LCCA assay) lay within 500 to 5000 nM; in test [1] (IGF1R kinase LCCA assay), 50 to 500 nM.
`Nc1ncnc2c1c(-c1cccc(Oc3ccccc3)c1)cn2C1CCCC1` [Example 354]: the IC50 (against IGF 3P (IGF1R kinase LCCA assay); in test [1] (IGF1R kinase LCCA assay)) was over 5000 nM throughout.
